Reference: ChEMBL document CHEMBL4330132, “5-Keto-3-cyano-2,4-diaminothiophenes as selective maternal embryonic leucine zipper kinase inhibitors” (Bioorg Med Chem Lett, 2019)

Columns and labels:
[1] = biological target: Ankyrin repeat and protein kinase domain-containing protein 1 (Homo sapiens) (UniProt Q8NFD2); test: Binding affinity to wild-type human partial length ANKK1 (M1 to A305 residues) expressed in mammalian expression system assessed as residual binding level at 1 uM by Kinomescan method relative to control
[2] = biological target: Bone morphogenetic protein receptor type-2 (Homo sapiens) (UniProt Q13873); test: Binding affinity to wild-type human partial length BMPR2 (R179 to Q526 residues) expressed in mammalian expression system assessed as residual binding level at 1 uM by Kinomescan method relative to control
[3] = biological target: Serine/threonine-protein kinase B-raf (Homo sapiens) (UniProt P15056); test: Binding affinity to wild-type human partial length BRAF (S429 to E741 residues) expressed in mammalian expression system assessed as residual binding level at 1 uM by Kinomescan method relative to control
Serine/threonine-protein kinase B-raf (Homo sapiens), sequence (P15056 whole entry, the tested form may be a part): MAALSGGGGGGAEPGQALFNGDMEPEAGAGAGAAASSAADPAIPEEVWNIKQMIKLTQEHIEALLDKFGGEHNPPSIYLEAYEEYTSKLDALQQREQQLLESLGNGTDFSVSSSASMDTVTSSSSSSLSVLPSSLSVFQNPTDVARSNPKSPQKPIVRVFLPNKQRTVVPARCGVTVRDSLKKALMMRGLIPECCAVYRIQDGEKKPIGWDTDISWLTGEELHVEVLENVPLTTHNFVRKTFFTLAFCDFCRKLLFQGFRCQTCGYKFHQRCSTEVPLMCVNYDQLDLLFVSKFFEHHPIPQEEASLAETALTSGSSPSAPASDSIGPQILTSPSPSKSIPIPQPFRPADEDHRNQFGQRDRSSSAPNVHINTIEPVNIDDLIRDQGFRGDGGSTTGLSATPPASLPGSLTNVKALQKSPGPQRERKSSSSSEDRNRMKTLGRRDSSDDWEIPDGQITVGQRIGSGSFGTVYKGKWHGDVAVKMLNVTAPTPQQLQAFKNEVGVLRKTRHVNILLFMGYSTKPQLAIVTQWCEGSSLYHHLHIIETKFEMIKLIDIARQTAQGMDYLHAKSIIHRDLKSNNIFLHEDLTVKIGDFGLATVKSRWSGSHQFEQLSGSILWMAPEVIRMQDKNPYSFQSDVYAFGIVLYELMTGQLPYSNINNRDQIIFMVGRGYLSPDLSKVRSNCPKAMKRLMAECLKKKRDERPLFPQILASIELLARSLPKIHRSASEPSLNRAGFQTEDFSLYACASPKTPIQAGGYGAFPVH

[4] = biological target: Dual specificity protein kinase CLK3 (Homo sapiens) (UniProt P49761); test: Binding affinity to wild-type human full length CLK3 (M1 to R490 residues) expressed in bacterial expression system assessed as residual binding level at 1 uM by Kinomescan method relative to control
[5] = biological target: Ephrin type-A receptor 7 (Homo sapiens) (UniProt Q15375); test: Binding affinity to wild-type human partial length EPHA7 (Y608 to S912 residues) expressed in bacterial expression system assessed as residual binding level at 1 uM by Kinomescan method relative to control
[6] = biological target: Ephrin type-B receptor 2 (Homo sapiens) (UniProt P29323); test: Binding affinity to wild-type human partial length EPHB2 (I597 to L902 residues) expressed in bacterial expression system assessed as residual binding level at 1 uM by Kinomescan method relative to control
Ephrin type-B receptor 2 (Homo sapiens), sequence (P29323 whole entry, the tested form may be a part): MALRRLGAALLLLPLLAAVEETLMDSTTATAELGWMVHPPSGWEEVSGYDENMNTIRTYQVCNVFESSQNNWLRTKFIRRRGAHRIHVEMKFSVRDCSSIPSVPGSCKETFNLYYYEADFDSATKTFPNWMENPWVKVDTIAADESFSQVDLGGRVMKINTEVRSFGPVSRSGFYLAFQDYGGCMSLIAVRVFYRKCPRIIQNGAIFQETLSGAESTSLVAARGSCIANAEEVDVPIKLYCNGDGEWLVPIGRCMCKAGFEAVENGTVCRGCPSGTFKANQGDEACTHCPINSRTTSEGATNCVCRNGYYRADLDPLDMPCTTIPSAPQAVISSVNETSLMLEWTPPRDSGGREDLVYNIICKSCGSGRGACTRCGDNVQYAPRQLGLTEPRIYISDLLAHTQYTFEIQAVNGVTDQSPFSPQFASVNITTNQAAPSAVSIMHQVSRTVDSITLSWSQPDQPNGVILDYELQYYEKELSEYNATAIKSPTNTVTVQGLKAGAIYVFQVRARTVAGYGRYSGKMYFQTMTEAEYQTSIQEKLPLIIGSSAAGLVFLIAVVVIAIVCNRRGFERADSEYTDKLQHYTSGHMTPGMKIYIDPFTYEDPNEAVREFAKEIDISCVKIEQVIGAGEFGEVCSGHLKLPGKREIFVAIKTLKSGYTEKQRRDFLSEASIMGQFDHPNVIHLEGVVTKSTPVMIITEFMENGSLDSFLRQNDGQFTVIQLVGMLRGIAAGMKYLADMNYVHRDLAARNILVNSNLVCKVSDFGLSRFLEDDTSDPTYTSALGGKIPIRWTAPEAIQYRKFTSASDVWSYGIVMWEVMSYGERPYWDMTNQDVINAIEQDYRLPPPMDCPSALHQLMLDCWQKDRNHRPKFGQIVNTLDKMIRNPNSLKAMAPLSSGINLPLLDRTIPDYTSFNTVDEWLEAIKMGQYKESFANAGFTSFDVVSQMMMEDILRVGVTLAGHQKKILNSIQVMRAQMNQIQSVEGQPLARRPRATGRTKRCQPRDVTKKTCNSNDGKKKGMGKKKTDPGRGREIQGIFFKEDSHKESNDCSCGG

[7] = biological target: Receptor tyrosine-protein kinase erbB-3 (Homo sapiens) (UniProt P21860); test: Binding affinity to wild-type human partial length ERBB3 (G684 to A987 residues) expressed in mammalian expression system assessed as residual binding level at 1 uM by Kinomescan method relative to control
[8] = biological target: Mitogen-activated protein kinase 1 (Homo sapiens) (UniProt P28482); test: Binding affinity to wild-type human full length ERK2 (M1 to S360 residues) expressed in bacterial expression system assessed as residual binding level at 1 uM by Kinomescan method relative to control
Mitogen-activated protein kinase 1 (Homo sapiens), sequence (P28482 whole entry, the tested form may be a part): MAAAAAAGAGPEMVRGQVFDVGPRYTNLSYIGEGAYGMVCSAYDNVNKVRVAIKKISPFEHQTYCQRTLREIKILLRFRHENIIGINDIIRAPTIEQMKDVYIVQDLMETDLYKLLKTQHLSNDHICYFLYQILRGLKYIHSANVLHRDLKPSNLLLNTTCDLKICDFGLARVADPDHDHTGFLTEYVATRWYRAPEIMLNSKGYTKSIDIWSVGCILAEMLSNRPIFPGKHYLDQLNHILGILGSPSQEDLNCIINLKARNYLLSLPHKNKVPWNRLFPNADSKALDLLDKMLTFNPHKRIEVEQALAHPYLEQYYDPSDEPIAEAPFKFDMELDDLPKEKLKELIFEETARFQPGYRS

[9] = biological target: Mitogen-activated protein kinase 6 (Homo sapiens) (UniProt Q16659); test: Binding affinity to wild-type human partial length ERK3 (M1 to P413 residues) expressed in bacterial expression system assessed as residual binding level at 1 uM by Kinomescan method relative to control
[10] = biological target: Fibroblast growth factor receptor 2 (Homo sapiens) (UniProt P21802); test: Binding affinity to wild-type human partial length FGFR2 (D457 to E769 residues) expressed in bacterial expression system assessed as residual binding level at 1 uM by Kinomescan method relative to control
Fibroblast growth factor receptor 2 (Homo sapiens), sequence (P21802 22-821 limits assumed): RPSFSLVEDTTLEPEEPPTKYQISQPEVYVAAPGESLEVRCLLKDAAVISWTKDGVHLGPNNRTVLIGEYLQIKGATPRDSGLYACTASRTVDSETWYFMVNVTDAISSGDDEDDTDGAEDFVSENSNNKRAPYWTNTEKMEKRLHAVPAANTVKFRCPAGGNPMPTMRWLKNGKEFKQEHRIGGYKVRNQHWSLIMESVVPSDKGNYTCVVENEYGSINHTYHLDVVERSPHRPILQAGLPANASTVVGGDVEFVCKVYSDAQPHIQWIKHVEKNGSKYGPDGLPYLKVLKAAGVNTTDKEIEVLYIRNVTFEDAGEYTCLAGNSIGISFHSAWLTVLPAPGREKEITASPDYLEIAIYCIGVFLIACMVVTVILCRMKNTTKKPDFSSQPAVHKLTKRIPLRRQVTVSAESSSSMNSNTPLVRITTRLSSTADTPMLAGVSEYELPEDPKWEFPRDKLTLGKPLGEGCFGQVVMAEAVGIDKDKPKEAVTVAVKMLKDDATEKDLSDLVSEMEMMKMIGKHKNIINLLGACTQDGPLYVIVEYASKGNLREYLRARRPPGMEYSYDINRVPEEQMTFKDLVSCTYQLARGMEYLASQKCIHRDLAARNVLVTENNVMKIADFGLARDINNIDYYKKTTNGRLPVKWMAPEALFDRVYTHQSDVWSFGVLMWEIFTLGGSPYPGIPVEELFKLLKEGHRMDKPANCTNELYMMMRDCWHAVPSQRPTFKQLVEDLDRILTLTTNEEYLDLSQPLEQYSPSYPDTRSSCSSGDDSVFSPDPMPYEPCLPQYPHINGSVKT

[11] = tested on: eIF-2-alpha kinase GCN2 (Homo sapiens), Q9P2K8 [S808G]; test: Binding affinity to wild-type human partial length GCN2 kinase domain 2 (R585 to T1018 residues) S808G mutant expressed in bacterial expression system assessed as residual binding level at 1 uM by Kinomescan method relative to control
[12] = biological target: Homeodomain-interacting protein kinase 4 (Homo sapiens) (UniProt Q8NE63); test: Binding affinity to wild-type human partial length HIPK4 (M1 to V384 residues) expressed in bacterial expression system assessed as residual binding level at 1 uM by Kinomescan method relative to control
Homeodomain-interacting protein kinase 4 (Homo sapiens), sequence (Q8NE63 whole entry, the tested form may be a part): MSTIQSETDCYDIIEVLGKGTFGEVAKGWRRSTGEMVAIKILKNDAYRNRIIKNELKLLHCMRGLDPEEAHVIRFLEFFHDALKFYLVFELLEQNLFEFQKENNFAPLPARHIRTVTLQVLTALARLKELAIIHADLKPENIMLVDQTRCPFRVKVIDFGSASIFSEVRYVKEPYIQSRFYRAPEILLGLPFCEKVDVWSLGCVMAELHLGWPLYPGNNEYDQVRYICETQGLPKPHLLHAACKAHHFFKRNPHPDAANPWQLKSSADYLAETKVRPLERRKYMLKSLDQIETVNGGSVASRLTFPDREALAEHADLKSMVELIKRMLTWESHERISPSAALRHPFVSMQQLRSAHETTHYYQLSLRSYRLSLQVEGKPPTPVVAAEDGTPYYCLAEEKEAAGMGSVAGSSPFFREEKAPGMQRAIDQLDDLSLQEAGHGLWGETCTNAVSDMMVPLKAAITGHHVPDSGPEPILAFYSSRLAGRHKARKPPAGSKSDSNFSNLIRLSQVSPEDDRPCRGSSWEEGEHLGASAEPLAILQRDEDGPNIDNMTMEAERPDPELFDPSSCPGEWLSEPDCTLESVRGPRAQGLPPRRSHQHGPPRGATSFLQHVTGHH

[13] = biological target: Inhibitor of nuclear factor kappa-B kinase subunit alpha (Homo sapiens) (UniProt O15111); test: Binding affinity to wild-type human full length IKK-alpha (M1 to E745 residues) expressed in mammalian expression system assessed as residual binding level at 1 uM by Kinomescan method relative to control
[14] = tested on: Mast/stem cell growth factor receptor Kit (Homo sapiens), P10721 [A829P]; test: Binding affinity to human partial length KIT A829P mutant (I571 to D952 residues) expressed in mammalian expression system assessed as residual binding level at 1 uM by Kinomescan method relative to control
[15] = biological target: Serine/threonine-protein kinase MAK (Homo sapiens) (UniProt P20794); test: Binding affinity to wild-type human partial length MAK (M1 to P314 residues) expressed in bacterial expression system assessed as residual binding level at 1 uM by Kinomescan method relative to control
[16] = biological target: MAP kinase-activated protein kinase 2 (Homo sapiens) (UniProt P49137); test: Binding affinity to wild-type human partial length MAPKAPK2 (V48 to D345 residues) expressed in bacterial expression system assessed as residual binding level at 1 uM by Kinomescan method relative to control
[17] = biological target: Mitogen-activated protein kinase kinase kinase 10 (Homo sapiens) (UniProt Q02779); test: Binding affinity to wild-type human partial length MLK2 (V52 to W380 residues) expressed in bacterial expression system assessed as residual binding level at 1 uM by Kinomescan method relative to control
[18] = biological target: Serine/threonine-protein kinase 38-like (Homo sapiens) (UniProt Q9Y2H1); test: Binding affinity to wild-type human partial length NDR2 (N34 to E447 residues) expressed in bacterial expression system assessed as residual binding level at 1 uM by Kinomescan method relative to control
[19] = biological target: Serine/threonine-protein kinase Nek3 (Homo sapiens) (UniProt P51956); test: Binding affinity to wild-type human full length NEK3 (M1 to R506 residues) expressed in mammalian expression system assessed as residual binding level at 1 uM by Kinomescan method relative to control
[20] = biological target: Serine/threonine-protein kinase Nek4 (Homo sapiens) (UniProt P51957); test: Binding affinity to wild-type human full length NEK4 (M1 to F841 residues) expressed in mammalian expression system assessed as residual binding level at 1 uM by Kinomescan method relative to control
[21] = tested on: Phosphatidylinositol 4,5-bisphosphate 3-kinase catalytic subunit alpha isoform (Homo sapiens), P42336 [H1047Y]; test: Binding affinity to human partial length PIK3CA H1047Y mutant (R108 to N1068 residues) expressed in mammalian expression system assessed as residual binding level at 1 uM by Kinomescan method relative to control
[22] = biological target: cAMP-dependent protein kinase catalytic subunit alpha (Homo sapiens) (UniProt P17612); test: Binding affinity to wild-type human partial length PKAC-alpha (G10 to F351 residues) expressed in bacterial expression system assessed as residual binding level at 1 uM by Kinomescan method relative to control
[23] = biological target: Tyrosine-protein kinase receptor Tie-1 (Homo sapiens) (UniProt P35590); test: Binding affinity to wild-type human partial length TIE1 (T819 to A1138 residues) expressed in bacterial expression system assessed as residual binding level at 1 uM by Kinomescan method relative to control
Tyrosine-protein kinase receptor Tie-1 (Homo sapiens), sequence (P35590 whole entry, the tested form may be a part): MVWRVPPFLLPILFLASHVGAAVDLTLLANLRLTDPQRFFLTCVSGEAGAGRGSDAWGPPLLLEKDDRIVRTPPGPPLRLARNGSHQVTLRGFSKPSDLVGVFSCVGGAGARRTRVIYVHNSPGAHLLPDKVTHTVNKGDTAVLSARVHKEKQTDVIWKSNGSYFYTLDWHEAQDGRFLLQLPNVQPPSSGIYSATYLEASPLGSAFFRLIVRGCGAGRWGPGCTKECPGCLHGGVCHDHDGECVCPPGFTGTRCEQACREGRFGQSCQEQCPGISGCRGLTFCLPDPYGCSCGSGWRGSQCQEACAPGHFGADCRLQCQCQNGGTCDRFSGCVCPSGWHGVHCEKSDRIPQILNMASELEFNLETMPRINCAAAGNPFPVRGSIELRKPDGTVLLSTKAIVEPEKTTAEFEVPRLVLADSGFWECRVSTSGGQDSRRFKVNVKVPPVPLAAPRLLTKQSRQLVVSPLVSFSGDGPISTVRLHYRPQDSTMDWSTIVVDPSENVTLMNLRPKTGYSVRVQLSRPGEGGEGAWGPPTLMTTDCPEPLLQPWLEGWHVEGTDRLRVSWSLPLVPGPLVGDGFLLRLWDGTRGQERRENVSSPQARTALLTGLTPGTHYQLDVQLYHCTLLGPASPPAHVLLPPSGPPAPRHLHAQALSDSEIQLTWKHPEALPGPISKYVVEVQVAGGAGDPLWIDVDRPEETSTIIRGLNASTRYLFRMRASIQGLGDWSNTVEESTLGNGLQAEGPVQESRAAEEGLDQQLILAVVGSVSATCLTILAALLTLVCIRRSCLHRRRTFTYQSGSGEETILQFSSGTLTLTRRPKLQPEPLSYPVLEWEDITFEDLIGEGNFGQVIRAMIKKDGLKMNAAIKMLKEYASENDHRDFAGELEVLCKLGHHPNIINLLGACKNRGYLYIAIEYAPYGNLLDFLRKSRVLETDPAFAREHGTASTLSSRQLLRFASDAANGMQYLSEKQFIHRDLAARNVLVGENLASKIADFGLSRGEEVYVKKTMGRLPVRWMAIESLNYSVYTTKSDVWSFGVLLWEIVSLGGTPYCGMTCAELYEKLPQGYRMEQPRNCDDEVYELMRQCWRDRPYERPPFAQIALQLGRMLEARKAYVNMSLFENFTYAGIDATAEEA

[24] = biological target: Mitogen-activated protein kinase kinase kinase 12 (Homo sapiens) (UniProt Q12852); test: Binding affinity to wild-type human full length DLK (M1 to P859 residues) expressed in mammalian expression system assessed as residual binding level at 1 uM by Kinomescan method relative to control

`CC(C)Nc1sc(C(=O)c2ccc(Cl)s2)c(N)c1C#N` gave an Activity [1] of 68%, an Activity [2] of 99% and an Activity [3] of 89%. The Activity [4] was 74%, the Activity [5] was 82% and the Activity [6] was 79%. The Activity [7] was 75%, the Activity [8] was 100% and the Activity [9] was 100%. For the same molecule, the Activity [10] was 99%, the Activity [11] was 45% and the Activity [12] was 80%. It also gave an Activity [13] of 100%, an Activity [14] of 66% and an Activity [15] of 100%. For the same molecule, the Activity [16] was 83%, the Activity [17] was 100% and the Activity [18] was 89%. The Activity [19] was 100%, the Activity [20] was 80% and the Activity [21] was 100%. It also gave an Activity [22] of 85%, an Activity [23] of 69% and an Activity [24] of 99%.
